Experimental findings from patent publication US9315490B2, “2,5-substituted pyrimidines” (Grünenthal GmbH, priority 2014, dated 2016) are described below.

Data set [1] addresses T1, human PDE4B1 (Homo sapiens, UniProt Q07343).
T1 construct: host or cells: Sf9 cells
Nature of the data set: TR-FRET assay using the LANCE Ultra cAMP kit to determine the activity of hPDE4B1. Type of data set: biochemical. Particulars: read-out: Inhibition in % (inhibition of PDE4B); for inhibition at 1 µM: test concentration 1 μM; for inhibition at 10 µM: test concentration 10 μM (marked in cell). A digest of the protocol: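 Sf9-expressed recombinant human PDE4B1 (0.96 U) hydrolyses 500 nM cAMP for 30 minutes at room temperature in 50 mM Tris-HCl, 50 mM MgCl2, 5 mM DTT, pH 8.5. The reaction is stopped with IBMX, and residual cAMP is measured by TR-FRET (665/620 ratio). IC50 comes from ten concentrations.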

Data set [2] deals with T1, human PDE4B1. The experiment in a line: cAMP HTRF assay to determine the activity of hPDE4B1. Type of data set: biochemical. Particulars: inhibition of PDE4B at a test concentration of 1 μM. A digest of the protocol: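 Human recombinant PDE4B1 from Sf9 cells (4.8 U) in Tris-HCl, MgCl2, DTT, Tween 20 buffer at pH 7.8 with 40 nM cAMP (final), 30 min at room temperature. Reaction stopped with 1 mM IBMX; remaining cAMP detected by HTRF (665/620 nm ratio). IC50 from eight-concentration curves.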
For orientation: In TR-FRET formats the signal depends on donor and acceptor labels being close together.

T1 sequence (Q07343 whole entry): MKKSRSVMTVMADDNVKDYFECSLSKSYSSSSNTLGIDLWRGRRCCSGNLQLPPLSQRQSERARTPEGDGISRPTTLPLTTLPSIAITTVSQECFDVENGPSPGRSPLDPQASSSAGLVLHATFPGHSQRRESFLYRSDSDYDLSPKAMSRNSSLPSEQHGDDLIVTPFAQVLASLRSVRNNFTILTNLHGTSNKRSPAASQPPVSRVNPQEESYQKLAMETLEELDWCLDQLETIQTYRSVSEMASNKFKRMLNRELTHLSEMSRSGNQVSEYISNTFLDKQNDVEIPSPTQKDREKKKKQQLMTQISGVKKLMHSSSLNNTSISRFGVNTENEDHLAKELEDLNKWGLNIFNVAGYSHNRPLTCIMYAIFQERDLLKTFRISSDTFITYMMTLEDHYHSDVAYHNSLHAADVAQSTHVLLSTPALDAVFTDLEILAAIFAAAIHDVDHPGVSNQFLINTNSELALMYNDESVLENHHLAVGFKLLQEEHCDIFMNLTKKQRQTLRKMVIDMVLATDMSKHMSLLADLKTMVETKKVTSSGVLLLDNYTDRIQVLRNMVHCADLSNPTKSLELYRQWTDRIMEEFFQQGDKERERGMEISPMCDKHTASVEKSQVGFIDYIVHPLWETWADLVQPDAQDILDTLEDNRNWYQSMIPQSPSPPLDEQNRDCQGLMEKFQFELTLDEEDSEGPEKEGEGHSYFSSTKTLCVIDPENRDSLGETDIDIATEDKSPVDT

With `C[S+]([O-])c1cn(-c2ncc(-c3cc(C#N)cs3)cn2)c2cc(C(=O)N3CCOCC3)ccc12` (stereo not shown) [Example 195, 5-(2-(3-(Methylsulfinyl)-6-(morpholine-4-carbonyl)-1H-indol-1-yl)pyrimidin-5-yl)thiophene-3-carbonitrile], the melting point (usually the temperature of the solid-liquid transition) lay in the range of 253 to 256 °C. Further, the inhibition (usually the relative decrease from the control value, in per cent) at 1 µM at human PDE4B1 [1] was 95%.
`C[S+]([O-])c1cn(-c2ncc(-c3cc(C(N)=O)cs3)cn2)c2cc(C(=O)N3CCOCC3)ccc12` (stereo not shown) [Example 196, 5-(2-(3-(Methylsulfinyl)-6-(morpholine-4-carbonyl)-1H-indol-1-yl)pyrimidin-5-yl)thiophene-3-carboxamide] yielded a melting point of 302 to 305 °C. Besides, at human PDE4B1 [1], the inhibition at 1 µM was 96%.
`Cc1csc(-c2cnc(-n3cc([S+](C)[O-])c4ccc(C(=O)N5CCOCC5)cc43)nc2)c1` (stereo not shown) [Example 197] gave a melting point of 232 to 235 °C. Also, the inhibition at 1 µM at human PDE4B1 [1] worked out at 96%.
Taken in the same sequence, the figures for `C[S+]([O-])c1cn(-c2ncc(-c3nc(C#N)cs3)cn2)c2cc(C(=O)N3CCOCC3)ccc12` (stereo not shown) [Example 203, 2-(2-(3-(Methylsulfinyl)-6-(morpholine-4-carbonyl)-1H-indol-1-yl)pyrimidin-5-yl)thiazole-4-carbonitrile] were 273 to 276 °C and 67%.
The compound `C[S+]([O-])c1cn(-c2ncc(-c3nc(C(N)=O)cs3)cn2)c2cc(C(=O)N3CCOCC3)ccc12` (stereo not shown) [Example 204, 2-(2-(3-(Methylsulfinyl)-6-(morpholine-4-carbonyl)-1H-indol-1-yl)pyrimidin-5-yl)thiazole-4-carboxamide] showed a melting point of 286 to 288 °C. Moreover, at human PDE4B1 [1], the inhibition at 1 µM came to 82%.
Taken in the same sequence, the figures for `Cc1csc(-c2cnc(-n3cc([S+](C)[O-])c4ccc(C(=O)N5CCOCC5)cc43)nc2)n1` (stereo not shown) [Example 205, (3-(Methylsulfinyl)-1-(5-(4-methylthiazol-2-yl)pyrimidin-2-yl)-1H-indol-6-yl)(morpholino)methanone] were 247 to 249 °C and 93%.
`Cc1cnc(-c2cnc(-n3cc([S+](C)[O-])c4ccc(C(=O)N5CCOCC5)cc43)nc2)s1` (stereo not shown) [Example 206, (3-(Methylsulfinyl)-1-(5-(5-methylthiazol-2-yl)pyrimidin-2-yl)-1H-indol-6-yl)(morpholino)methanone]: the melting point lay within 257 to 260 °C. Also, the inhibition at 1 µM on human PDE4B1 [1] worked out at 85%.
Consider `C[S+]([O-])c1cn(-c2ncc(-c3ncc(C(N)=O)s3)cn2)c2cc(C(=O)N3CCOCC3)ccc12` (stereo not shown) [Example 208, 2-(2-(3-(Methylsulfinyl)-6-(morpholine-4-carbonyl)-1H-indol-1-yl)pyrimidin-5-yl)thiazole-5-carboxamide], for which the melting point was 286 to 289 °C. In addition, at human PDE4B1 [1], the inhibition at 1 µM came to 82%.
`C[S+]([O-])c1cn(-c2ncc(-c3cc(N)ccn3)cn2)c2cc(C(=O)N3CCOCC3)ccc12` (stereo not shown) [Example 209, 2-(1-(5-(4-Aminopyridin-2-yl)pyrimidin-2-yl)-3-(methylsulfinyl)-1H-indol-6-yl)(morpholino)methanone] gave a melting point of 293 to 297 °C. Also, the inhibition at 1 µM against human PDE4B1 [2] was 101%.
For `CN(C)c1ccnc(-c2cnc(-n3cc([S+](C)[O-])c4ccc(C(=O)N5CCOCC5)cc43)nc2)c1` (stereo not shown) [Example 210, (1-(5-(4-(Dimethylamino)pyridin-2-yl)pyrimidin-2-yl)-3-(methylsulfinyl)-1H-indol-6-yl)(morpholino)methanone], the melting point was 213 to 217 °C. The inhibition at 1 µM against human PDE4B1 [2] came to 96%.
In the case of `C[S+]([O-])c1cn(-c2ncc(-c3nccs3)cn2)c2cc(C(=O)N3CCOCC3)ccc12` (stereo not shown) [Example 211, (3-(Methylsulfinyl)-1-(5-(thiazol-2-yl)pyrimidin-2-yl)-1H-indol-6-yl)(morpholino)methanone], the melting point was in the range of 235 to 237 °C. The inhibition at 1 µM against human PDE4B1 [2] amounted to 85%.
With `C[S+]([O-])c1cn(-c2ncc(-c3ccnnc3)cn2)c2cc(C(=O)N3CCOCC3)ccc12` (stereo not shown) [Example 212, (3-(Methylsulfinyl)-1-(5-(pyridazin-4-yl)pyrimidin-2-yl)-1H-indol-6-yl)(morpholino)methanone], the melting point lay in the range of 278 to 282 °C. In addition, on human PDE4B1 [2], the inhibition at 1 µM came out at 33%.
`C[S+]([O-])c1cn(-c2ncc(-c3ccccc3F)cn2)c2cc(C(=O)N3CCO[C@@H](CO)C3)ccc12` (stereo partly drawn) [Example 219, (1-(5-(2-Fluorophenyl)pyrimidin-2-yl)-3-(methylsulfinyl)-1H-indol-6-yl)((R)-2-(hydroxymethyl)morpholino)methanone] had a melting point of 206 to 210 °C. In addition, on human PDE4B1 [1], the inhibition at 1 µM turned out to be 87%.
For the compound `C[S+]([O-])c1cn(-c2ncc(-c3ccccc3F)cn2)c2cc(C(=O)N3CCO[C@H](CO)C3)ccc12` (stereo partly drawn) [Example 220, (1-(5-(2-Fluorophenyl)pyrimidin-2-yl)-3-(methylsulfinyl)-1H-indol-6-yl)((S)-2-(hydroxymethyl)morpholino)methanone], the melting point lay in the range of 194 to 198 °C. In addition, on human PDE4B1 [1], the inhibition at 1 µM was found to be 93%.
Take `CN(CCN)C(=O)c1ccc2c([S+](C)[O-])cn(-c3ncc(-c4ccccc4F)cn3)c2c1` (stereo not shown) [Example 221, N-(2-Aminoethyl)-1-(5-(2-fluorophenyl)pyrimidin-2-yl)-N-methyl-3-(methylsulfinyl)-1H-indole-6-carboxamide]: the melting point lay in the range of 88 to 92 °C. Moreover, the inhibition at 1 µM at human PDE4B1 [1] came to 94%.
The compound `CCc1ccnc(-c2cnc(-n3cc([S+](C)[O-])c4ccc(C(=O)N5CC[C@@H](N)C5)cc43)nc2)c1` (stereo partly drawn) [Example 337, ((R)-3-Aminopyrrolidin-1-yl)(1-(5-(4-ethylpyridin-2-yl)pyrimidin-2-yl)-3-(methylsulfinyl)-1H-indol-6-yl)methanone] had a melting point of 160 to 163 °C. Besides, the inhibition at 10 µM on human PDE4B1 [1] turned out to be 102%.
`CC(C)c1ccnc(-c2cnc(-n3cc([S+](C)[O-])c4ccc(C(=O)N5CC[C@@H](N)C5)cc43)nc2)c1` (stereo partly drawn) [Example 338, ((R)-3-Aminopyrrolidin-1-yl)(1-(5-(4-isopropylpyridin-2-yl)pyrimidin-2-yl)-3-(methylsulfinyl)-1H-indol-6-yl)methanone]: the melting point lay within 264 to 268 °C. Besides, the inhibition at 10 µM at human PDE4B1 [1] was 99%.
On to `C[S+]([O-])c1cn(-c2ncc(-c3cc(C4CC4)ccn3)cn2)c2cc(C(=O)N3CC[C@@H](N)C3)ccc12` (stereo partly drawn) [Example 339, ((R)-3-Aminopyrrolidin-1-yl)(1-(5-(4-cyclopropylpyridin-2-yl)pyrimidin-2-yl)-3-(methylsulfinyl)-1H-indol-6-yl)methanone], for which the melting point lay in the range of 278 to 281 °C. The inhibition at 10 µM at human PDE4B1 [1] turned out to be 105%.
As for `Cc1ccnc(-c2cnc(-n3cc(S(C)(=O)=O)c4ccc(C(=O)N5CC[C@@H](N)C5)cc43)nc2)c1` [Example 340, (R)-(3-Aminopyrrolidin-1-yl)(1-(5-(4-methylpyridin-2-yl)pyrimidin-2-yl)-3-(methylsulfonyl)-1H-indol-6-yl)methanone], the melting point was in the range of 157 to 160 °C. Also, at human PDE4B1 [1], the inhibition at 10 µM came to 100%.
In the case of `CNCCN(C)C(=O)c1ccc2c([S+](C)[O-])cn(-c3ncc(-c4ccccc4F)cn3)c2c1` (stereo not shown) [Example 346, 1-(5-(2-Fluorophenyl)pyrimidin-2-yl)-N-methyl-N-(2-(methylamino)ethyl)-3-(methylsulfinyl)-1H-indole-6-carboxamide], the melting point fell in the range of 122 to 126 °C. On human PDE4B1 [1], the inhibition at 1 µM was found to be 87%.
`C[S+]([O-])c1cn(-c2ncc(-c3ccccc3F)cn2)c2cc(C(=O)N3CC4CCC3CN4)ccc12` (stereo not shown) [Example 347, 2,5-Diazabicyclo[2.2.2]octan-2-yl(1-(5-(2-fluorophenyl)pyrimidin-2-yl)-3-(methylsulfinyl)-1H-indol-6-yl)methanone] registered a melting point of 141 to 144 °C. For the same compound, the inhibition at 10 µM on human PDE4B1 [1] was determined as 97%.
In turn, `C[S+]([O-])c1cn(-c2ncc(-c3ccccc3F)cn2)c2cc(C(=O)N3C4CCC3CNC4)ccc12` (stereo not shown) [Example 348, 3,8-Diazabicyclo[3.2.1]octan-8-yl(1-(5-(2-fluorophenyl)pyrimidin-2-yl)-3-(methylsulfinyl)-1H-indol-6-yl)methanone] yielded a melting point of 237 to 240 °C. Besides, the inhibition at 1 µM on human PDE4B1 [1] came out at 99%.
Turning to `O=C(c1ccc2c(C3CC3)cn(-c3ncc(-c4ccccc4F)cn3)c2c1)N1CCOCC1` [Example 354, (3-Cyclopropyl-1-(5-(2-fluorophenyl)pyrimidin-2-yl)-1H-indol-6-yl)(morpholino) methanone], the melting point was 177 to 181 °C. Also, the inhibition at 1 µM on human PDE4B1 [1] was 71%.
